Measurements taken from patent US5563155A, “Individual stereosiomers of 7-[3-(aminoalkyl)-1-pyrrolidinyl]-quinolones and naphthyridones as antibacterial agents” (Warner-Lambert Company, priority 1995, dated 1996).
≈ marks a conversion by molar mass, not a printed value.

Assays:
Assay type in all cases: cell-based
[1] = system: Klebs. pneumoniae MGH-2; assay: in vitro antibacterial activity, microtitration dilution (MIC), Klebs. pneumoniae MGH-2; conditions: Klebsiella pneumoniae, MGH2, read-out: minimum inhibiting concentration (MIC)
Source text: (§1) The in vitro antibacterial activity, is obtained by the microtitration dilution method as described in Heifetz, et al., Antimicr. Agents & Chemother., 6, 124 (1974), which is incorporated herein by reference.
(§2) By use of the above methods, the following minimum inhibiting concentration values (MICs in μg/mL), PD50 's in mg/kg, no effect phototoxicity dose in mg/kg and the cytotoxicity IC50 in μg/mL were obtained for representative enantiomers of the invention and compounds of the prior art as shown in the table.

[2] = system: Staph. aureus H 228; assay: in vitro antibacterial activity, microtitration dilution (MIC), Staph. aureus H 228; conditions: Staphylococcus aureus, H228, read-out: minimum inhibiting concentration (MIC)
Source text: as §1, §2

[3] = system: Strep. pyogenes C-203; assay: in vitro antibacterial activity, microtitration dilution (MIC), Strep. pyogenes C-203; conditions: Streptococcus pyogenes, C203, read-out: minimum inhibiting concentration (MIC)
Source text: as §1, §2

[4] = system: Staph. aureus UC-76; assay: in vitro antibacterial activity, microtitration dilution (MIC), Staph. aureus UC-76; conditions: Staphylococcus aureus, UC76, read-out: minimum inhibiting concentration (MIC)
Source text: as §1, §2

[5] = system: Pseud. aeruginosa UI-18; assay: in vitro antibacterial activity, microtitration dilution (MIC), Pseud. aeruginosa UI-18; conditions: Pseudomonas aeruginosa, UI18, read-out: minimum inhibiting concentration (MIC)
Source text: as §1, §2

[6] = system: Esch. coli Vogel; assay: in vitro antibacterial activity, microtitration dilution (MIC), Esch. coli Vogel; conditions: Escherichia coli, read-out: minimum inhibiting concentration (MIC)
Source text: as §1, §2

[7] = system: Ent. cloacae MA2646; assay: in vitro antibacterial activity, microtitration dilution (MIC), Ent. cloacae MA2646; conditions: Enterobacter cloacae, read-out: minimum inhibiting concentration (MIC)
Source text: as §1, §2

[8] = system: Strep. pheumoniae SV-1; assay: in vitro antibacterial activity, microtitration dilution (MIC), Strep. pneumoniae SV-1; conditions: Streptococcus pneumoniae, SV1, read-out: minimum inhibiting concentration (MIC)
Source text: as §1, §2

[9] = system: Prot. rettgeri M 1771; assay: in vitro antibacterial activity, microtitration dilution (MIC), Prot. rettgeri M 1771; conditions: Providencia rettgeri, M1771, read-out: minimum inhibiting concentration (MIC)
Source text: as §1, §2

[10] = system: Strep. faecalis MGH-2; assay: in vitro antibacterial activity, microtitration dilution (MIC), Strep. faecalis MGH-2; conditions: Enterococcus faecalis, MGH2, read-out: minimum inhibiting concentration (MIC)
Source text: as §1, §2

Structure (SMILES) | MIC [1] [µg/mL] | MIC [2] [µg/mL] | MIC [3] [µg/mL] | MIC [4] [µg/mL] | MIC [5] [µg/mL] | MIC [6] [µg/mL] | MIC [7] [µg/mL] | MIC [8] [µg/mL] | MIC [9] [µg/mL] | MIC [10] [µg/mL]
CCN[C@@H](C)[C@H]1CCN(c2nc3c(cc2F)c(=O)c(C(=O)O)cn3C2CC2)C1 [Example 80, 3S,1S-1-cyclopropyl-7-[3-[1-(ethylamino)ethyl]-1-pyrrolidinyl]-6-fluoro-1,4-dihydro-4-oxo-1,8-naphthyridine-3-carboxylic acid] | 0.4 (≈ 1.03 µM) | 0.2 (≈ 0.515 µM) | 0.4 (≈ 1.03 µM) | 0.1 (≈ 0.257 µM) | 3.1 (≈ 7.98 µM) | 0.2 (≈ 0.515 µM) | 0.2 (≈ 0.515 µM) | 0.1 (≈ 0.257 µM) | 1.6 (≈ 4.12 µM) | 0.2 (≈ 0.515 µM)
COc1c(N2CC[C@@H]([C@H](C)N)C2)c(F)cc2c(=O)c(C(=O)O)cn(C3CC3)c12 [Example 44, 3R,1S-7-[3-(1-aminoethyl)-1-pyrrolidinyl]-1-cyclopropyl-6-fluoro-1,4-dihydro-8-methoxy-4-oxo-3-quinolinecarboxylic acid] | 0.05 (≈ 0.128 µM) | 0.006 (≈ 0.0154 µM) | ≤ 0.003 | ≤ 0.003 | 0.4 (≈ 1.03 µM) | 0.025 (≈ 0.0642 µM) | 0.05 (≈ 0.128 µM) | ≤ 0.003 | 0.05 (≈ 0.128 µM) | 0.006 (≈ 0.0154 µM)
CCOc1c(N2CC[C@@H]([C@H](C)N)C2)c(F)cc2c(=O)c(C(=O)O)cn(C3CC3)c12 [Example 49, 3R,1S-7-[3-(1-aminoethyl)-1-pyrrolidinyl]-1-cyclopropyl-8-ethoxy-6-fluoro-1,4-dihydro-4-oxo-3-quinolinecarboxylic acid] | 0.2 (≈ 0.496 µM) | 0.013 (≈ 0.0322 µM) | 0.006 (≈ 0.0149 µM) | ≤ 0.003 | 1.6 (≈ 3.97 µM) | 0.1 (≈ 0.248 µM) | 0.2 (≈ 0.496 µM) | 0.006 (≈ 0.0149 µM) | 0.2 (≈ 0.496 µM) | 0.025 (≈ 0.062 µM)
COc1c(N2CC[C@@H]([C@@H](C)N)C2)c(F)cc2c(=O)c(C(=O)O)cn(C3CC3)c12 [Example 45, 3R,1R-7-[3-(1-aminoethyl)-1-pyrrolidinyl]-1-cyclopropyl-6-fluoro-1,4-dihydro-8-methoxy-4-oxo-3-quinolinecarboxylic acid] | 0.1 (≈ 0.257 µM) | 0.25 (≈ 0.642 µM) | 0.013 (≈ 0.0334 µM) | ≤ 0.03 | 0.8 (≈ 2.05 µM) | 0.05 (≈ 0.128 µM) | 0.05 (≈ 0.128 µM) | 0.013 (≈ 0.0334 µM) | 0.2 (≈ 0.514 µM) | 0.025 (≈ 0.0642 µM)
C[C@H]([C@H]1CCN(c2nc3c(cc2F)c(=O)c(C(=O)O)cn3C2CC2)C1)N(C)C [Example 69, 3S,1R-1-cyclopropyl-7-[3-[1-(dimethylamino)ethyl]-1-pyrrolidinyl]-6-fluoro-1,4-dihydro-4-oxo-1,8-naphthyridine-3-carboxylic acid] | 0.2 (≈ 0.515 µM) | 0.05 (≈ 0.129 µM) | 0.025 (≈ 0.0644 µM) | 0.006 (≈ 0.0154 µM) | 1.6 (≈ 4.12 µM) | 0.1 (≈ 0.257 µM) | 0.1 (≈ 0.257 µM) | 0.013 (≈ 0.0335 µM) | 0.4 (≈ 1.03 µM) | 0.025 (≈ 0.0644 µM)
C[C@H](N)[C@@H]1CCN(c2c(F)cc3c(=O)c(C(=O)O)cn(C4CC4)c3c2C(F)(F)F)C1 [Example 60, 3R,1S-7-[3-(1-aminoethyl)-1-pyrrolidinyl]-1-cyclopropyl-6-fluoro-1,4-dihydro-4-oxo-8-trifluoromethyl-3-quinolinecarboxylic acid] | 0.2 (≈ 0.468 µM) | 0.013 (≈ 0.0304 µM) | 0.006 (≈ 0.014 µM) | 0.006 (≈ 0.014 µM) | 1.6 (≈ 3.74 µM) | 0.2 (≈ 0.468 µM) | 0.2 (≈ 0.468 µM) | 0.006 (≈ 0.014 µM) | 0.4 (≈ 0.936 µM) | 0.025 (≈ 0.0585 µM)
C[C@@H]([C@H]1CCN(c2nc3c(cc2F)c(=O)c(C(=O)O)cn3C2CC2)C1)N(C)C [Example 70, 3S,1S-1-cyclopropyl-7-[3-[1-(dimethylamino)ethyl]-1-pyrrolidinyl]-6-fluoro-1,4-dihydro-4-oxo-1,8-naphthyridine-3-carboxylic acid] | 0.8 (≈ 2.06 µM) | 0.4 (≈ 1.03 µM) | 0.4 (≈ 1.03 µM) | 0.2 (≈ 0.515 µM) | 12.5 (≈ 32.2 µM) | 0.4 (≈ 1.03 µM) | 0.4 (≈ 1.03 µM) | 0.2 (≈ 0.515 µM) | 3.1 (≈ 7.98 µM) | 0.8 (≈ 2.06 µM)

Next, values leading:

MIC [1] [µg/mL] | MIC [2] [µg/mL] | MIC [3] [µg/mL] | MIC [4] [µg/mL] | MIC [5] [µg/mL] | MIC [6] [µg/mL] | MIC [7] [µg/mL] | MIC [8] [µg/mL] | MIC [9] [µg/mL] | MIC [10] [µg/mL] | Structure (SMILES)
0.013 (≈ 0.0331 µM) | 0.003 (≈ 0.00765 µM) | 0.003 (≈ 0.00765 µM) | 0.003 (≈ 0.00765 µM) | 0.4 (≈ 1.02 µM) | 0.013 (≈ 0.0331 µM) | 0.013 (≈ 0.0331 µM) | 0.003 (≈ 0.00765 µM) | 0.025 (≈ 0.0637 µM) | 0.003 (≈ 0.00765 µM) | C[C@H](N)[C@@H]1CCN(c2c(F)c(N)c3c(=O)c(C(=O)O)cn(C4CC4)c3c2F)C1 [Example 58, 3R,1S-5-amino-7-[3-(1-aminoethyl)-1-pyrrolidinyl]-1-cyclopropyl-6,8-difluoro-1,4-dihydro-4-oxo-3-quinolinecarboxylic acid]
0.2 (≈ 0.497 µM) | 0.05 (≈ 0.124 µM) | 0.013 (≈ 0.0323 µM) | 0.025 (≈ 0.0621 µM) | 1.6 (≈ 3.98 µM) | 0.1 (≈ 0.248 µM) | 0.1 (≈ 0.248 µM) | 0.013 (≈ 0.0323 µM) | 0.8 (≈ 1.99 µM) | 0.05 (≈ 0.124 µM) | CCN[C@@H](C)[C@@H]1CCN(c2cc3c(c(N)c2F)c(=O)c(C(=O)O)cn3C2CC2)C1 [Example 55, 3R,1S-5-amino-7-[3-(1-N-ethylaminoethyl)-1-pyrrolidinyl]-1-cyclopropyl-6-fluoro-1,4-dihydro-4-oxo-3-quinolinecarboxylic acid]
0.8 (≈ 1.97 µM) | 0.8 (≈ 1.97 µM) | 1.6 (≈ 3.94 µM) | 0.4 (≈ 0.984 µM) | 3.1 (≈ 7.63 µM) | 0.4 (≈ 0.984 µM) | 0.4 (≈ 0.984 µM) | 0.8 (≈ 1.97 µM) | 1.6 (≈ 3.94 µM) | 1.6 (≈ 3.94 µM) | CN[C@H](C)[C@H]1CCN(c2c(F)c(N)c3c(=O)c(C(=O)O)cn(C4CC4)c3c2F)C1 [Example 34, 3S,1R-5-amino-1-cyclopropyl-6,8-difluoro-7-[3-(1-N-methylaminoethyl)-1-pyrrolidinyl]-1,4-dihydro-4-oxo-3-quinolinecarboxylic acid]
0.8 (≈ 1.92 µM) | 0.1 (≈ 0.24 µM) | 0.025 (≈ 0.0599 µM) | 0.05 (≈ 0.12 µM) | 6.3 (≈ 15.1 µM) | 0.4 (≈ 0.958 µM) | 0.4 (≈ 0.958 µM) | 0.013 (≈ 0.0311 µM) | 1.6 (≈ 3.83 µM) | 0.1 (≈ 0.24 µM) | CCN[C@H](C)[C@H]1CCN(c2c(F)cc3c(=O)c(C(=O)O)cn(C4CC4)c3c2OC)C1 [Example 19, 3S,1R-1-cyclopropyl-6-fluoro-7-[3-(1-N-ethylaminoethyl)1-pyrrolidinyl]-8-methoxy-1,4-dihydro-4-oxo-3-quinolinecarboxylic acid]
0.8 (≈ 1.97 µM) | 0.1 (≈ 0.246 µM) | 0.2 (≈ 0.492 µM) | 0.05 (≈ 0.123 µM) | 3.1 (≈ 7.63 µM) | 0.2 (≈ 0.492 µM) | 0.2 (≈ 0.492 µM) | 0.2 (≈ 0.492 µM) | 0.8 (≈ 1.97 µM) | 0.2 (≈ 0.492 µM) | CN[C@@H](C)[C@H]1CCN(c2c(F)c(N)c3c(=O)c(C(=O)O)cn(C4CC4)c3c2F)C1 [Example 35, 3S,1S-5-amino-1-cyclopropyl-6,8-difluoro-7-[3-(1-N-methylaminoethyl)-1-pyrrolidinyl]-1,4-dihydro-4-oxo-3-quinolinecarboxylic acid]
0.4 (≈ 1.07 µM) | 0.8 (≈ 2.14 µM) | 0.4 (≈ 1.07 µM) | 0.2 (≈ 0.534 µM) | 3.1 (≈ 8.28 µM) | 0.2 (≈ 0.534 µM) | 0.4 (≈ 1.07 µM) | 0.4 (≈ 1.07 µM) | 0.8 (≈ 2.14 µM) | 0.8 (≈ 2.14 µM) | CN[C@@H](C)[C@H]1CCN(c2nc3c(cc2F)c(=O)c(C(=O)O)cn3C2CC2)C1 [Example 24, 3S,1S-1-cyclopropyl-6-fluoro-7-[3-(1-N-methylaminoethyl)-1-pyrrolidinyl]-1,4-dihydro-4-oxo-1,8-naphthyridine-3-carboxylic acid]
0.4 (≈ 0.996 µM) | 0.05 (≈ 0.125 µM) | 0.05 (≈ 0.125 µM) | 0.013 (≈ 0.0324 µM) | 3.1 (≈ 7.72 µM) | 0.4 (≈ 0.996 µM) | 0.4 (≈ 0.996 µM) | 0.05 (≈ 0.125 µM) | 1.6 (≈ 3.99 µM) | 0.05 (≈ 0.125 µM) | CCN[C@@H](C)[C@@H]1CCN(c2cc3c(c(C)c2F)c(=O)c(C(=O)O)cn3C2CC2)C1 [Example 52, 3R,1S-1-cyclopropyl-7-[3-(1-N-ethylaminoethyl)-1-pyrrolidinyl]-6-fluoro-1,4-dihydro-5-methyl-4-oxo-3-quinolinecarboxylic acid]
0.1 (≈ 0.268 µM) | 0.025 (≈ 0.0669 µM) | 0.003 (≈ 0.00803 µM) | 0.003 (≈ 0.00803 µM) | 0.8 (≈ 2.14 µM) | 0.1 (≈ 0.268 µM) | 0.1 (≈ 0.268 µM) | 0.003 (≈ 0.00803 µM) | 0.2 (≈ 0.536 µM) | 0.025 (≈ 0.0669 µM) | Cc1c(F)c(N2CC[C@@H]([C@H](C)N)C2)cc2c1c(=O)c(C(=O)O)cn2C1CC1 [Example 47, 3R,1S-7-[3-(1-aminoethyl)-1-pyrrolidinyl]-1-cyclopropyl-6-fluoro-1,4-dihydro-5-methyl-4-oxo-3-quinolinecarboxylic acid]
0.2 (≈ 0.478 µM) | 0.013 (≈ 0.0311 µM) | 0.006 (≈ 0.0143 µM) | 0.006 (≈ 0.0143 µM) | 1.6 (≈ 3.82 µM) | 0.1 (≈ 0.239 µM) | 0.2 (≈ 0.478 µM) | 0.006 (≈ 0.0143 µM) | 0.4 (≈ 0.956 µM) | 0.025 (≈ 0.0597 µM) | CN[C@@H](C)[C@@H]1CCN(c2c(F)c(N)c3c(=O)c(C(=O)O)cn(C4CC4)c3c2OC)C1 [Example 56, 3R,1S-5-amino-1-cyclopropyl-6-fluoro-1,4-dihydro-8-methoxy-7-[3-(1-N-methylaminoethyl)-1-pyrrolidinyl]-4-oxo-3-quinolinecarboxylic acid]
